9 molecules from US8133884B2, “Compounds for the treatment of hepatitis C” (priority 2008, dated 2012) can be followed below.

One test deals with HCV replicon. As to the kind of experiment: HCV replicon assay (FRET or luciferase reporter). It counts as cell-based. The following applies: Hepatitis C virus, one of the methods described, class symbol. From the text:
To perform the HCV FRET screening assay, 96-well cell culture plates were used, The FRET peptide (Anaspec, Inc.) (Taliani et al., Anal. Biochem., 240:60-67 (1996)) contains a fluorescence donor, EDANS, near one end of the peptide and an acceptor, DABCYL, near the other end. The fluorescence of the peptide is quenched by […] resonance energy transfer (RET) between the donor and the acceptor, but as the NS3 protease cleaves the peptide the products are released from RET quenching and the fluorescence of the donor becomes apparent. The assay reagent was made as follows: 5× cell Luciferase cell culture lysis reagent from Promega (#E153A) diluted to 1× with dH2O, NaCl added to 150 mM final, the FRET peptide diluted to 20 μM final from a 2 mM stock.
To prepare plates, HCV replicon cells, with or without a Renilla luciferase reporter gene, were trypsinized and placed into each well of a 96-well plate with titrated test compounds added in columns 3 through 12; columns 1 and 2 contained a control compound (HCV protease inhibitor), and the bottom row contained cells without compound. The plates were then placed in a CO2 incubator at 37° C.
Subsequent to addition of the test compounds described above (FRET Assay Preparation), at various times the plate was removed and Alamar blue solution (Trek Diagnostics, #00-100) was added per well as a measure of cellular toxicity. After reading in a CYTOFLUOR® 4000 instrument (PE Biosystems), plates were rinsed with PBS and then used for FRET assay by the addition of 30 ul of the FRET peptide assay reagent described above (FRET Assay Preparation) per well. The plate was then placed into the CYTOFLUOR® 4000 instrument which had been set to 340 excite/490 emission, automatic mode for 20 cycles and the plate read in a kinetic mode. Typically, the signal to noise using an endpoint analysis after the reads was at least three-fold. Alternatively, after Alamar blue reading, plates were rinsed with PBS, 50 ul of DMEM (high glucose) without phenol red was added and plates were then used for luciferase assay using the Promega DUAL-GLO® Luciferase Assay System.
Compound analysis was determined by quantification of the relative HCV replicon inhibition and the relative cytotoxicity values. To calculate cytoxicity values, the average Alamar Blue fluorescence signals from the control wells were set as 100% non-toxic. The individual signals in each of the compound test wells were then divided by the average control signal and multiplied by 100% to determine […]. To calculate the HCV replicon inhibition values, an average background value was obtained from the two wells containing the highest amount of HCV protease inhibitor at the end of the assay period. These numbers were similar to those obtained from naïve Huh-7 cells.
The background numbers were then subtracted from the average signal obtained from the control wells and this number was used as 100% activity. The individual signals in each of the compound test wells were then divided by the averaged control values after background subtraction and multiplied by 100% to determine percent activity. EC50 values for a protease inhibitor titration were calculated as the concentration which caused a 50% reduction in FRET or luciferase activity. The two numbers generated for the compound plate, percent cytoxicity and percent activity were used to determine compounds of interest for further analysis.
The HCV replicon luciferase assay was developed to monitor the inhibitory effects of compounds described in the disclosure on HCV viral replication. Utilization of a replicon luciferase reporter assay was first described by Krieger et al (Krieger, N. et al., J. Virology, 75(10):4614-4624 (2001)). HUH-7 cells, constitutively expressing the HCV replicon, were grown in Dulbecco's Modified Eagle Media (DMEM) (Gibco-BRL) containing 10% Fetal calf serum (FCS) (Sigma) and 1 mg/ml G418 (Gibco-BRL). […]
A general note: Replicon systems follow genome replication, usually without infectious particles.
As a reminder, the EC50 is the concentration at which the effect is half-maximal. Low readings indicate an effect from little substance, high ones a need for much substance. Regarding `COc1ccc2c(c1)C=C(c1c(C(=O)N3C4CCC3CN(C)C4)cnn1C1CCOCC1)Cn1c-2c(C2CCCCC2)c2ccc(C(=O)NS(=O)(=O)CC(C)C)cc21`, the EC50 was 1.7 to 500 nM.
Take `COc1ccc2c(c1)C=C(c1c(C(=O)N3C[C@@H](C)N(C)[C@@H](C)C3)cnn1C1CCOCC1)Cn1c-2c(C2CCCCC2)c2ccc(C(=O)NS(=O)(=O)CC(C)C)cc21`: the EC50 lay in the range of 1.7 to 500 nM.
Still for that read-out and setting: the figure for `CCN1C[C@@H]2C[C@H]1CN2C(=O)c1cnn(C2CCOCC2)c1C1=Cc2cc(OC)ccc2-c2c(C3CCCCC3)c3ccc(C(=O)NS(=O)(=O)CC(C)C)cc3n2C1` is 1.7 to 500 nM.
On the same count and under the same terms, the figure for `COc1ccc2c(c1)C=C(c1c(C(=O)N3CC4CCC(C3)N4C)cnn1C1CCOCC1)Cn1c-2c(C2CCCCC2)c2ccc(C(=O)NS(=O)(=O)CC(C)C)cc21` is 1.7 to 500 nM; for `COc1ccc2c(c1)C=C(c1c(C(=O)N3C[C@@H](C)O[C@@H](C)C3)cnn1-c1ccncc1C)Cn1c-2c(C2CCCCC2)c2ccc(C(=O)NS(=O)(=O)C3CC3)cc21` it is 1.7 to 500 nM.
Turning to `COc1ccc2c(c1)C=C(c1c(C(=O)N3C[C@@H](C)O[C@@H](C)C3)cnn1-c1ccccc1)Cn1c-2c(C2CCCCC2)c2ccc(C(=O)NS(=O)(=O)C(C)C)cc21`, the EC50 lay in the range of 1.7 to 500 nM.
On the same count and under the same terms, the same measure for `COc1ccc2c(c1)C=C(c1c(C(=O)N3C[C@@H](C)O[C@@H](C)C3)cnn1-c1ccccn1)Cn1c-2c(C2CCCCC2)c2ccc(C(=O)NS(=O)(=O)C(C)C)cc21`: 1.7 to 500 nM; for `COc1ccc2c(c1)C=C(c1c(C(=O)N3C[C@@H](C)O[C@@H](C)C3)cnn1C1CCCC1)Cn1c-2c(C2CCCCC2)c2ccc(C(=O)NS(=O)(=O)C(C)C)cc21`: 1.7 to 500 nM; for `COc1ccc2c(c1)C=C(c1c(C(=O)N3C[C@@H](C)O[C@@H](C)C3)cnn1-c1ncccn1)Cn1c-2c(C2CCCCC2)c2ccc(C(=O)NS(=O)(=O)C(C)C)cc21`: 1.7 to 500 nM.

In a further test the target is T1, HCV NS5B (Hepatitis C virus genotype 1b, UniProt Q9WMX2).
T1 construct: The protein was expressed with an 18 amino acid C-terminal truncation to enhance the solubility; made in house; host or cells: E. coli BL21(DE3)
T1 sequence (Q9WMX2 2420-2992): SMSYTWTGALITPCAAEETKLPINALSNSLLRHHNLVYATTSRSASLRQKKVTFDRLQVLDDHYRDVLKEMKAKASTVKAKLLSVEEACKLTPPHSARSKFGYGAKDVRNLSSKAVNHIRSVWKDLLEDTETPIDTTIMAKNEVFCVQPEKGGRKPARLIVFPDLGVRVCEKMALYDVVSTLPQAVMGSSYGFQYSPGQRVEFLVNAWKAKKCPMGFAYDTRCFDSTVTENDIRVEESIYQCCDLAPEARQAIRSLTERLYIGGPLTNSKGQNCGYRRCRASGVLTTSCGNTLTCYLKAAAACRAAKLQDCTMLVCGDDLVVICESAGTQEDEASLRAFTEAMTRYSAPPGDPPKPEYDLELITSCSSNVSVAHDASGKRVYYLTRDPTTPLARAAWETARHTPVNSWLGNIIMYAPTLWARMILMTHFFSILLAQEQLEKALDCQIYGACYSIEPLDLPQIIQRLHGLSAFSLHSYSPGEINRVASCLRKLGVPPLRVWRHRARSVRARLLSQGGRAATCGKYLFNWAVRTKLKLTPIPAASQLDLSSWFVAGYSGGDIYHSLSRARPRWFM
As to the kind of experiment: Modified HCV NS5B RdRp enzyme assay (preincubation protocol). The following applies: class symbol. It counts as biochemical. As to the method:
The cDNA encoding the NS5B protein of HCV, genotype 1b, was cloned into the pET21a expression vector. The protein was expressed with an 18 amino acid C-terminal truncation to enhance the solubility. The E. coli competent cell line BL21(DE3) was used for expression of the protein. Cultures were grown at 37° C. for ˜4 hours until the cultures reached an optical density of 2.0 at 600 nm. The cultures were cooled to 20° C. and induced with 1 mM IPTG. Fresh ampicillin was added to a final concentration of 50 μg/ml and the cells were grown overnight at 20° C.
Cell pellets (3 L) were lysed for purification to yield 15-24 mgs of purified NS5B. The lysis buffer consisted of 20 mM Tris-HCl, pH 7.4, 500 mM NaCl, 0.5% triton X-100, 1 mM DTT, 1 mM EDTA, 20% glycerol, 0.5 mg/ml lysozyme, 10 mM MgCl2, 15 ug/ml deoxyribonuclease I, and Complete TM protease inhibitor tablets (Roche). After addition of the lysis buffer, frozen cell pellets were resuspended using a tissue homogenizer. To reduce the viscosity of the sample, aliquots of the lysate were sonicated on ice using a microtip attached to a Branson sonicator. The sonicated lysate was centrifuged at 100,000×g for 1 hr at 4° C. and filtered through a 0.2 μm filter unit (Corning).
The protein was purified using three sequential chromatography steps: Heparin sepharose CL-6B, polyU sepharose 4B, and […] SP sepharose (Pharmacia). The chromatography buffers were identical to the lysis buffer but contained no lysozyme, deoxyribonuclease I, MgCl2 or protease inhibitor and the NaCl concentration of the buffer was adjusted according to the requirements for charging the protein onto the column. Each column was eluted with a NaCl gradient which varied in length from 5-50 column volumes depending on the column type. After the final chromatography step, the resulting purity of the enzyme is >90% based on SDS-PAGE analysis. The enzyme was aliquoted and stored at −80° C.
HCV RdRp genotype 1b assays were run in a final volume of 60 μl in 96 well plates (Costar 3912). The assay buffer is composed of 20 mM Hepes, pH 7.5, 2.5 mM KCl, 2.5 mM MgCl2, 1 mM DTT, 1.6 U RNAse inhibitor (Promega N2515), 0.1 mg/ml BSA (Promega R3961), and 2% glycerol. All compounds were serially diluted (3-fold) in DMSO and diluted further in water such that the final concentration of DMSO in the assay was 2%. HCV RdRp genotype 1b enzyme was used at a final concentration of 28 nM. A polyA template was used at 6 nM, and a biotinylated oligo-dT12 primer was used at 180 nM final concentration. Template was obtained commercially (Amersham 27-4110). Biotinylated primer was prepared by Sigma Genosys. 3H-UTP was used at 0.6 μCi (0.29 μM total UTP). Reactions were initiated by the addition of enzyme, incubated at 30° C. for 60 min, and stopped by adding 25 μl of 50 mM EDTA containing SPA beads (4 μg/μl, Amersham RPNQ 0007). Plates were read on a Packard TOPCOUNT® NXT after >1 hr incubation at room temperature.
A modified enzyme assay was performed essentially as described for the standard enzyme assay except for the following: The biotinylated oligo dT12 primer was precaptured on streptavidin-coated SPA beads by mixing primer and beads in assay buffer and incubating at room temperature for one hour. Unbound primer was removed after centrifugation. The primer-bound beads were resuspended in 20 mM Hepes buffer, pH 7.5 and used in the assay at final concentrations of 20 nM primer and 0.67 μg/μl beads. Order of addition in the assay: enzyme (14 nM) was added to diluted compound followed by the addition of a mixture of template (0.2 nM), 3H-UTP (0.6 μCi, 0.29 μM), and primer-bound beads, to initiate the reaction; concentrations given are final. Reactions were allowed to proceed for 4 hours at 30° C.
IC50 values for compounds were determined using seven different [I]. IC50 values were calculated from the inhibition using the formula y=A+((B−A)/(1+((C/x)^D))).
As a reminder, the IC50 is the concentration that inhibits the measured activity by half. On to `COc1ccc2c(c1)C=C(c1c(C(=O)N3C4CCC3CN(C)C4)cnn1C1CCOCC1)Cn1c-2c(C2CCCCC2)c2ccc(C(=O)NS(=O)(=O)CC(C)C)cc21`, for which the IC50 lay within 1.7 to 500 nM.
On to `COc1ccc2c(c1)C=C(c1c(C(=O)N3C[C@@H](C)N(C)[C@@H](C)C3)cnn1C1CCOCC1)Cn1c-2c(C2CCCCC2)c2ccc(C(=O)NS(=O)(=O)CC(C)C)cc21`, for which the IC50 fell in the range of 1.7 to 500 nM.
Same read-out and setting: the same measure for `CCN1C[C@@H]2C[C@H]1CN2C(=O)c1cnn(C2CCOCC2)c1C1=Cc2cc(OC)ccc2-c2c(C3CCCCC3)c3ccc(C(=O)NS(=O)(=O)CC(C)C)cc3n2C1`: 1.7 to 500 nM; for `COc1ccc2c(c1)C=C(c1c(C(=O)N3CC4CCC(C3)N4C)cnn1C1CCOCC1)Cn1c-2c(C2CCCCC2)c2ccc(C(=O)NS(=O)(=O)CC(C)C)cc21`: 1.7 to 500 nM; for `COc1ccc2c(c1)C=C(c1c(C(=O)N3C[C@@H](C)O[C@@H](C)C3)cnn1-c1ccncc1C)Cn1c-2c(C2CCCCC2)c2ccc(C(=O)NS(=O)(=O)C3CC3)cc21`: 1.7 to 500 nM.
On to `COc1ccc2c(c1)C=C(c1c(C(=O)N3C[C@@H](C)O[C@@H](C)C3)cnn1-c1ccccc1)Cn1c-2c(C2CCCCC2)c2ccc(C(=O)NS(=O)(=O)C(C)C)cc21`, for which the IC50 lay in the range of 1.7 to 500 nM.
Still for that read-out and setting: the figure for `COc1ccc2c(c1)C=C(c1c(C(=O)N3C[C@@H](C)O[C@@H](C)C3)cnn1-c1ccccn1)Cn1c-2c(C2CCCCC2)c2ccc(C(=O)NS(=O)(=O)C(C)C)cc21` is 1.7 to 500 nM; for `COc1ccc2c(c1)C=C(c1c(C(=O)N3C[C@@H](C)O[C@@H](C)C3)cnn1C1CCCC1)Cn1c-2c(C2CCCCC2)c2ccc(C(=O)NS(=O)(=O)C(C)C)cc21` it is 1.7 to 500 nM.
On to `COc1ccc2c(c1)C=C(c1c(C(=O)N3C[C@@H](C)O[C@@H](C)C3)cnn1-c1ncccn1)Cn1c-2c(C2CCCCC2)c2ccc(C(=O)NS(=O)(=O)C(C)C)cc21`, for which the half-inhibitory concentration (IC50) was in the range of 1.7 to 500 nM.
